# Assay results published in patent US20060134693A1, “Olfactory cyclic nucleotide-gated channel cell-based assays to identify T1R and T2R taste modulators” (priority 2001, published 2006).
# Peptide text beside a SMILES is read from it.
# Assays:
# [1] = test system: Parental CNG cells lacking the human sweet GPCR; test: Control Parental CNG cells lacking the human sweet GPCR, FLIPR384 response; assay type: cell-based; conditions: 5 mM Aspartame, average of 2
# Procedure: (§1) Methods: […] This cell line was derived from HEK293 cells. CNG136 was tested with several sweet receptor agonists and modulators including, Compound 6542888, Compound 3069733, and Aspartame. Response to 10 uM of 6542888 and 3069733 and 5 mM Aspartame was measured using a FLIPR384 instrument (Molecular Devices) and is reported in Table I below. Data were normalized to the maximum activity obtained with a saturating concentration of Aspartame (5 mM). Compounds were also tested on control (“Parental CNG”) cells lacking the human sweet GPCR.
# [2] = biological target: T1, human sweet receptor hT1R2/hT1R3 (Homo sapiens, UniProt Q7RTX0+Q8TE23); test: Isoproterenol-induced calcium influx in HEK-293-oCNGC cells expressing hT1R2/hT1R3; assay type: cell-based; conditions: PTX 100 ng/ml for 4 hours; 200 nM isoproterenol; 5 mM Aspartame, 2 mM Cyclamate, 4 mM Saccharin, 0.1 mM Neotame; FIG. 15
# T1 construct: host or cells: human embryonic kidney cells (earlier application U.S. Ser. No. 10/770,127)
# T1 sequence (Q8TE23 20-839): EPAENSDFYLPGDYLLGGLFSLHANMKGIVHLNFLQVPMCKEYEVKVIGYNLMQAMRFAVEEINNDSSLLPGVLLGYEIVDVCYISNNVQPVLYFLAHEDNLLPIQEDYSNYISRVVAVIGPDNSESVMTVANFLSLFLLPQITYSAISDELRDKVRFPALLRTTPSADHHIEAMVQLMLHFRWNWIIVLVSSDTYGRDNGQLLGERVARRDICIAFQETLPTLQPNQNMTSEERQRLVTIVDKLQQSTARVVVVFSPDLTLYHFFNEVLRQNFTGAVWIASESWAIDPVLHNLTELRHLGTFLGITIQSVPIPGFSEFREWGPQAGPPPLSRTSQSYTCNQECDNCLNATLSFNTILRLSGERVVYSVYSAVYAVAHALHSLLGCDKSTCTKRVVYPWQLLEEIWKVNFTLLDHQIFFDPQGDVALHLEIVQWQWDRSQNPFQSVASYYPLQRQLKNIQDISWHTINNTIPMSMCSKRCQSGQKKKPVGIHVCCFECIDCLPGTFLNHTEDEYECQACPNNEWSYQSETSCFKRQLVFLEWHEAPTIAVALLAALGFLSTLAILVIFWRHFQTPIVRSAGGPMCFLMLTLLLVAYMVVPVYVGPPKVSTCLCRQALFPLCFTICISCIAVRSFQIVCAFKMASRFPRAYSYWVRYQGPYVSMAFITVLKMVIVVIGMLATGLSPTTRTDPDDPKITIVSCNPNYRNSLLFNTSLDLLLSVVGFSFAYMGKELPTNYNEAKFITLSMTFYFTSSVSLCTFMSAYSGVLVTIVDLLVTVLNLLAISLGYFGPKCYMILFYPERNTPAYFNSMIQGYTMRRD
# T1 sequence (Q7RTX0 21-852): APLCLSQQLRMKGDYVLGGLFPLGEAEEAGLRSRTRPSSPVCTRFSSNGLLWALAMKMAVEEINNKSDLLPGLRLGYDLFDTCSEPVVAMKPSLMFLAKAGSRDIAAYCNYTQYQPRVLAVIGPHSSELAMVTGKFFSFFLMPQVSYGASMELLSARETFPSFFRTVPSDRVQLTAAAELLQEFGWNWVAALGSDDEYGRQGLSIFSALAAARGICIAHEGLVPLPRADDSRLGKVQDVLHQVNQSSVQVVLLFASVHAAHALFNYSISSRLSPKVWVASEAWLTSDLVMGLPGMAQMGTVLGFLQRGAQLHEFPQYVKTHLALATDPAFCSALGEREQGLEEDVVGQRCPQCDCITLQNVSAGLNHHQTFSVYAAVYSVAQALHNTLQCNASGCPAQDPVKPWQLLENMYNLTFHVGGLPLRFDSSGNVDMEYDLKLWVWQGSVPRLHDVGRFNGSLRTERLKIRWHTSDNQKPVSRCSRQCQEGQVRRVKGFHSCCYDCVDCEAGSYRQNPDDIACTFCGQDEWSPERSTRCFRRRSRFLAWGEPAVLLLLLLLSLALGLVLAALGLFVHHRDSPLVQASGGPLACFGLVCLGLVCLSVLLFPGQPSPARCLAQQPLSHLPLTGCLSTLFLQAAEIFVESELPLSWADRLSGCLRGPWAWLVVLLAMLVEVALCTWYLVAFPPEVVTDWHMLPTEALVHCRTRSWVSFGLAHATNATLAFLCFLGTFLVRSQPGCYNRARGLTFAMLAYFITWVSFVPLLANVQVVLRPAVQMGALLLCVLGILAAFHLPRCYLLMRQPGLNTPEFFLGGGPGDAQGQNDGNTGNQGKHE
# Procedure: FIG. 13 contains the result of an experiment showing that increasing concentrations of sweeteners inhibit the isoproterenol-induced-calcium influx in HEK 293-oCNGC cells expressing the human sweet receptor hT1R2/hT1R3. Delta F/F values were normalized to the fluorescence obtained after stimulation with 200 nM isoproterenol. Each value corresponds to the mean ± SD of a triplicate determination.
# Cells were left untreated (control) or treated with PTX for 4 hours at 100 ng/ml prior to the experiment. Cells were then stimulated with 200 nM isoproterenol in the presence or absence of the indicated sweeteners (5 mM Aspartame, 2 mM Cyclamate, 4 mM Saccharin and 0.1 mM Neotame).
# (§2) Modulation of oCNG activity by taste receptors is measured in a cell-based assay that detects changes in intracellular calcium (as described in earlier examples). In brief, human embryonic kidney cells stably expressing the OCNC1 and are β1b subunits of oCNGC are transiently or stably transfected with T1R or T2R receptor plasmids. Transfected cells are seeded into 384-well culture plates, and functional expression is allowed to proceed for about 24 to 48 hours. The cells are then incubated with a calcium specific fluorescent dye (Fluo-4 or Fura-2, available from Molecular Probes) that provides for fast, simple and reliable fluorimetric detection of changes in calcium concentration within the cell.
# An experiment was conducted to assess the effect of various sweeteners (known to activate the human T1R2/T1R3 sweet receptor) on isoproterenol-induced calcium influx in HEK-293—oCNGC cells that express the human T1R2/T1R3 sweet receptor. As shown by the results in FIG. 13, increasing concentrations of sweetener inhibits isoproterenol-induced calcium influx in these cells. (In the figure, Delta F/F values were normalized to the fluorescence obtained after stimulation with 200 nM isoproterenol and each value corresponds to the means ± SD of a triplicate determination). […]
# [3] = test system: untransfected HEK 293-oCNGC cells; test: Isoproterenol-induced calcium influx in untransfected HEK 293-oCNGC cells; assay type: cell-based, human; conditions: cells not expressing hT1R2/hT1R3; increasing concentrations; 200 nM isoproterenol; FIG. 14
# Procedure: Delta F/F valves were normalized to the fluorescence obtained after stimulation with 200 nM isoproterenol. Each value corresponds to the mean ± SD of a triplicate determination.
# as §2
# An experiment was conducted to confirm that the effects of the sweeteners on calcium influx requires the expression of the sweet receptor.
# In FIG. 14, it is shown that increasing concentrations of the tested sweeteners had no inhibitory effect on isoproterenol-induced calcium influx in untransfected HEK 293—oCNGC cells. Again, Delta F/F values were normalized to the fluorescence obtained after stimulation with 200 nM isoproternol and each value component to the mean ± SD of a triplicate determination).
# [4] = biological target: T2, human T1R2/T1R3 sweet taste GPCR (Homo sapiens, UniProt Q7RTX0+Q8TE23); test: CNG136 cell line (HEK293-derived, co-expressing human CNG channel and human T1R2/T1R3), FLIPR384 response; assay type: cell-based; conditions: 5 mM Aspartame (saturating concentration, the normalization reference); average of 2
# T2 construct: expressed in transfected cells; host or cells: CNG136, derived from HEK293
# T2 sequence (Q8TE23 20-839): T1 sequence (Q8TE23 20-839)
# T2 sequence (Q7RTX0 21-852): T1 sequence (Q7RTX0 21-852)
# Procedure: as §1
# [5] = test system: human olfactory CNG channel; test: FLIPR calcium assay, HEK-293 cells stably expressing the human olfactory CNG channel; assay type: cell-based; conditions: calcium dye; versus parent cells; FIG. 11
# Procedure: The HEK-293 cells that stably express the human olfactory CNG channel were seeded into FLIPR imaging plates 24 hours prior to the experiment, on plates pre-coated with matrigel. The cells were loaded with a fluorescent calcium dye for one hour, washed and transferred to a FLIPR automated fluorometric plate reader with on-board fluidics. […] Therefore, the cell-based assay is amenable to high throughput applications.
# HEK-293-oCNGC cells = test: Calcium influx in HEK-293-oCNGC cells on isoproterenol addition; assay type: cell-based, human; conditions: increasing concentrations; FIG. 12
# Procedure: FIG. 12 contains the results of an experiment showing that increasing concentrations of isoproterenol induce calcium influx in HEK 293-oCNGC cells. Delta F/F corresponds to the maximum fluorescence value obtained after stimulation minus the minimum fluorescence measured before stimulation and normalized to the minimum fluorescence measure before stimulation.
# as §2
# This accumulation of CAMP induces oCNGC activation, which in turn causes extracellular calcium to flow inside the cells, resulting in a net increase of intracellular calcium concentration and a parallel increase of the fluorescence signal in the cells (FIG. 12).
# [6] = test system: activity-enhanced human olfactory CNG channel; test: FLIPR calcium assay, HEK-293 cells stably expressing the activity-enhanced human olfactory CNG channel; assay type: cell-based; conditions: calcium dye; versus parent cells and wild type CNG subunits; FIG. 11
# Procedure: The HEK-293 cells that stably express the activity-enhanced human olfactory CNG channel were seeded into FLIPR imaging plates 24 hours prior to the experiment, on plates pre-coated with matrigel. The cells were loaded with a fluorescent calcium dye for one hour, washed and transferred to a FL]PR automated fluorometric plate reader with on-board fluidics. […] Therefore, the cell-based assay is amenable to high throughput applications, especially with respect to low affinity modulators.
# [7] = biological target: T3, mouse olfactory receptor, mOREG (Mus musculus, UniProt Q920P2); test: Calcium dye fluorescence microscopy, HEK-293 cells transfected with mOREG and human olfactory CNG channel subunits; assay type: cell-based; conditions: CNG channel dependent and mOREG dependent, FIG. 9
# T3 construct: expressed in transfected cells; host or cells: HEK-293, co-transfected with OCNC1[C458W/E581M], OCNC2 and β1b
# T3 sequence (Q920P2 1-313): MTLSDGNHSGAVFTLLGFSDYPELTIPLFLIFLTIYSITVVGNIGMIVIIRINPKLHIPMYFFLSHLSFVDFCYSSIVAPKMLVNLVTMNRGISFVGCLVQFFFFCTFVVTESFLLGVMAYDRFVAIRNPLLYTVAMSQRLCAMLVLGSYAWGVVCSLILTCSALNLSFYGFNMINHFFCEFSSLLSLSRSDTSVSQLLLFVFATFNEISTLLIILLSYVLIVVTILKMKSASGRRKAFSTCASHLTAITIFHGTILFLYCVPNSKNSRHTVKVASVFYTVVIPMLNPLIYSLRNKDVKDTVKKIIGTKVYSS
# Procedure: HEK-293 cells were transfected with OCNC1[C458W/E581FM], OCNC2, and β1band a mouse olfactory receptor, mOREG, that is activated by eugenol (Kajiya et al., 2001). Transfected cells were seeded onto multi-well plates. After 48 hours, cells were loaded with a calcium dye for one hour, then washed, and their response to eugenol stimulation was monitored by fluorescence microscopy.
structure (smiles),measurement,setting,value
COC(=O)[C@H](Cc1ccccc1)NC(=O)[C@@H](N)CC(=O)O [Aspartame] (H-Asp-Phe-OMe),% Activity CNG (Parental Cells),[1],0%
same,inhibition of isoproterenol-induced calcium influx after PTx pretreatment,[2],prevented the inhibition
same,effect on isoproterenol-induced calcium influx,[3],unaffected
same,% Max Activity CNG136,[4],100%
CC(C)NCC(O)c1ccc(O)c(O)c1 (centres unmarked) [isoproterenol],fluorescence response,[5],increased fluorescence
same,calcium influx,HEK-293-oCNGC cells,in a dose-dependent manner
same,fluorescence response,[6],fluorescence similar to that observed with wild type CNG subunits
"C=CCc1ccc(O)c(OC)c1 [Eugenol, eugenol]",fluorescence response,[7],elicited fluorescence increases
